Laboratory results reported in patent US8642614B2, “Toll-like receptor modulators and uses thereof” (The Regents of the University of Colorado, a body corporate, priority 2009, dated 2014).
Where two headings read alike, the source gives them in different places.

How the values were obtained:
[1] = rat, in vivo
[2] = tested on: LPS-induced TLR4 activation; assay: Real time microscopy of Akt1-GFP translocation (TLR4 signaling) in RAW264.7 macrophages; type: cell-based, mouse; conditions: RAW 264.7 Akt1-GFP, LPS 2 ng/ml
Procedure: Lipopolysaccharide (LPS)-induced TLR4 activation initiates the phosphoinositide 3-kinase (PI3K) cascade, triggering translocation of Akt1 to the plasma membrane in murine macrophages. RAW 264.7 cells transfected with an Akt1-GFP reporter13 were treated with drug then activated with LPS. In the absence of LPS, Akt1-GFP was uniformly diffused throughout the cytosol as observed by fluorescence microscopy. Addition of LPS (2 ng/ml) caused a rapid translocation of Akt1-GFP to the plasma membrane, lowering the Akt1-GFP concentration in the cytosol. Doses of Compound A-1 as low as 2 μM and Compound A-2 as low as 200 nM substantially abolished LPS-induced activation of the signaling pathway.
FIGS. 3A and 3B. A small dose of chemotactic peptide C5a (25 ng/mL) that stimulates PI3K15 was able to rescue the Akt signaling inhibited by either compound. […]
TLR4 signaling leads to the simultaneous activation of three parallel intra-cellular signaling pathways. […] Baseline fluorescence was captured for 5 frames, following which vehicle or antagonist was added in 200 μl. Imaging continued for a further 20 frames at which time LPS or test agonist (200 μl) were applied and monitored for a further 20 frames. […] GFP-Akt1 cytosolic clearance was quantified using ImageJ and expressed as a normalized change in cytoplasmic fluorescence over time.

[3] = Hargreaves test (radiant heat withdrawal), intrathecal injection with or without morphine; conditions: rat
[4] = tested on: HEK293 cells stably transfected with TLR4; assay: Cell viability assay (Trypan Blue); type: cell-based, human; conditions: tested concentrations, FIG. 4
Procedure: Human embryonic kidney 293 (HEK293) cells were stably transfected with TLR4 and necessary assembly and signalling proteins (MD2, CD-14, LPSBP, etc.). Cells were cultured in DMEM supplemented with 10% FBS, penicillin (100 U/ml), streptomycin ([…]), L-glutamine (2 mM), 0.1 mg/ml normocin (InvivoGen, CA, USA) and 1×HEK Blue selection reagent (InvivoGen, CA, USA). Cells were implanted in 6 cm plates and grown to 65-75% confluency by incubating at 37° C., prior to drug treatment. On the day of treatment, media was removed from the 6 cm plate and replaced with cerebrospinal fluid (CSF) buffer supplemented with drug treatment. After 24 h incubation at 37° C., CSF was removed and cells were agitated with 0.05% Trypsin plus 0.2 g/l EDTA (Invitrogen, CA, USA) and re-suspended in fresh DMEM supplemented media. After re-suspension, a […] was taken from each 6 cm plate, mixed gently with 100 μl 0.4% Trypan Blue (Sigma, Mo., USA) and allowed to sit for 5 min. The ratio of blue stained cells to total cells was then quantified using a Bright Line 0.1 mm depth hemocytometer (VWR, PA, USA) under a Nikon TMS light microscope (Nikon Instrumentals, CA USA).

TLR4 [5] = target: T1, TLR4 (Homo sapiens, UniProt O00206); assay: Secreted alkaline phosphatase (SEAP) reporter gene assay in HEK293 cells transfected with TLR4; type: cell-based; conditions: HEK293, SEAP reporter downstream of NF-κB promoter; dose-dependent manner
Procedure: FIGS. 3A and 3B. A small dose of chemotactic peptide C5a (25 ng/mL) that stimulates PI3K15 was able to rescue the Akt signaling inhibited by either compound. Global translocation of Akt1-GFP to the plasma membrane was observed, confirming that these cells retained normal Akt signaling transduction functions. Akt1 is directly downstream of TLR4 in the signal transduction pathway. […] Murine macrophages express a variety of TLRs and immune receptors. […] The activity of Compound A-1 was further confirmed in an established TLR4 assay in HEK293 cells, where a secreted alkaline phosphatase reporter gene is located downstream from the NF-κB promoter. Compound A-1 was effective at blocking the downstream proinflammatory effectors of TLR4 in a dose-dependent manner.
Materials for the SEAP assay were obtained from Applied Biosystems (CA, USA) and utilized according to the manufacturer's specifications. Human embryonic kidney 293 (HEK293) cells stably transfected with TLR4 and a secreted alkaline phosphatase (SEAP) reporter gene was obtained from Invivogen (CA, USA). […]
A sample of CSF buffer (15 μL) from each well was collected and transferred to an opaque white 96 well plate (Microfluor 2, Thermo Scientific MA, USA). […] After 20 min, the luminescence of each well was measured using a plate reader (Beckman Coulter, DTX 880, CA, USA) with multimode analysis software.

TLR4 [6] = target: T1, TLR4; assay: Whole blood model of inflammation (cytokine secretion after LPS or E. coli); type: cell-based
Procedure: Test of TLR4 inhibition by compounds of the invention with respect to impact on secretion of cytokines IL-6, IL-8, (TNFα) and IL1β in the whole blood model of inflammation was performed using the procedure described by Mollnes et al. (Blood, 2002, 100, 1869-1877) using (i) LPS to compare the two variants of 2126-HCl in a restricted set-up, (ii) gram negative bacteria to initiate innate immune response that involves both TLR4/MD2, TLR2, as well as the complement system (compare to anti-CD14 and compstatin).

TLR4 [7] = target: TLR4 (Homo sapiens, UniProt O00206+Q9Y6Y9)
[8] = clinically employed (−)-opioids

TLR4 (Homo sapiens, UniProt O00206+Q9Y6Y9), sequence (O00206 24-839, species assumed): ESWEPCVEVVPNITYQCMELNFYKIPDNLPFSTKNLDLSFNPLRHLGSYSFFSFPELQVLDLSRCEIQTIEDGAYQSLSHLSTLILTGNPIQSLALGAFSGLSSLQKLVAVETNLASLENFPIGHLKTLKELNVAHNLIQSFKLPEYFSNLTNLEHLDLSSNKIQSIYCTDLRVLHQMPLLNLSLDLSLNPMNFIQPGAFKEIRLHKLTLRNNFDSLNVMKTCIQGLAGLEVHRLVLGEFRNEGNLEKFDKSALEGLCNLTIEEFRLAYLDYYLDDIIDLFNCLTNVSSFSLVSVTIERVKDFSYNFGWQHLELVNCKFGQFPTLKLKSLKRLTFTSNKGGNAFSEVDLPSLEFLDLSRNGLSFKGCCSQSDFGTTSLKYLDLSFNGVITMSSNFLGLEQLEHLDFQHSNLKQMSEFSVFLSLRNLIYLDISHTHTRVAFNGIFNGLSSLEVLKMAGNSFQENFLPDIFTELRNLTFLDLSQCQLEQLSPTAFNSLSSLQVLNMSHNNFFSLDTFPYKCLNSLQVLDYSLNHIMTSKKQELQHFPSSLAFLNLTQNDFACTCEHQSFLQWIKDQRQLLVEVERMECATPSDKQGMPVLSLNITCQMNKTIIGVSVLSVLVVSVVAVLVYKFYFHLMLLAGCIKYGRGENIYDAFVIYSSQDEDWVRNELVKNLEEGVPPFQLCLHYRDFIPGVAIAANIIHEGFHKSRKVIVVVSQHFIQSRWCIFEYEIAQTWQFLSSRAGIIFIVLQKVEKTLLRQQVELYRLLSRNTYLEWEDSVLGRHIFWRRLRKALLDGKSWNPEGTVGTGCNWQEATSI
TLR4 (Homo sapiens, UniProt O00206+Q9Y6Y9), sequence (Q9Y6Y9 19-160, species assumed): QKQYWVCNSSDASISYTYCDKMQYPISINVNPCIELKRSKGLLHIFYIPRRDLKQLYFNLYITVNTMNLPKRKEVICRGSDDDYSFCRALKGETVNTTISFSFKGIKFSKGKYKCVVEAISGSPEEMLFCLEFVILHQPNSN
T1 sequence (O00206 24-839): as the sequence (O00206 24-839, species assumed) above

In the case of CCOc1ccc(OCC(O)CN(C)Cc2c(C)nn(Cc3ccccc3Cl)c2C)cc1 (stereo not drawn) [Compound A-1, 1-(((1-(2-chlorobenzyl)-3,5-dimethyl-1H-pyrazol-4-yl)methyl)(methyl)amino)-3-(4-ethoxyphenoxy)propan-2-ol], the “behavioral effects of compound alone” value [1] is reported as “no detectable behavioral effects”, the “dose that substantially abolished LPS-induced activation of the signaling pathway” value [2] is reported as at most 2 µM and the “potentiation of the analgesic effects of morphine” value ([3]; with morphine, maximal analgesia recordable (10 s cut-off) across two hours) is reported as “significantly potentiated”. For the same compound, the “effect on pain responsivity in the absence of co-administered morphine” value ([3]; without morphine) was “no effect”, the cellular toxicity [4] was “neither Compound A-1 nor Compound A-2 showed any significant cellular toxicity” and the “blocking the downstream proinflammatory effectors of TLR4” value (TLR4 [5]) was “effective”.
With CC[C@H](C)[C@H](N)C(=O)N[C@H]1CSSC[C@@H](C(=O)N[C@H](C(N)=O)[C@@H](C)O)NC(=O)[C@H](CCCN=C(N)N)NC(=O)[C@H](Cc2cnc[nH]2)NC(=O)[C@H](Cc2cnc[nH]2)NC(=O)CNC(=O)[C@H](Cc2c[nH]c3ccccc23)NC(=O)[C@H](CC(=O)O)NC(=O)[C@H](CCC(N)=O)NC(=O)[C@H](C(C)C)NC(=O)[C@H](C(C)C)NC1=O [compstatin] the “effect of compstatin on the inhibition of Il-6 levels by anti-CD14 and 2126-HCl” value (TLR4 [6]; E. coli as activator) was “increased the inhibitory effect”, the “reduction of Il-1β plasma levels” value (TLR4 [6]; E. coli stimulation, 2126-HCl 500 μM, compstatin 25 μM) was “about 50%” and the “cytokine release in response to E. coli on addition of compstatin” value (TLR4 [6]; E. coli, added to anti-CD14 or 2126-HCl) was “further decreased”. The cytokine specificity (TLR4 [6]; compstatin itself) was “specific for Il8 and Il-1β” and the “effect on Il-6 secretion / plasma levels” value (TLR4 [6]; whole blood) was “little impact”.
For CCC(=O)C(CC(C)N(C)C)(c1ccccc1)c1ccccc1 (stereo not drawn) [methadone], the TLR4 agonism (TLR4 [7]; [8]) was “TLR4 agonists”.
For CN1CC[C@]23c4c5ccc(O)c4O[C@H]2[C@@H](O)C=C[C@H]3[C@H]1C5 [morphine], the TLR4 agonism (TLR4 [7]) was “TLR4 agonists”.
For COc1ccc2c3c1O[C@H]1C(=O)CC[C@@]4(O)[C@@H](C2)N(C)CC[C@]314 [oxycodone], the TLR4 agonism (TLR4 [7]; [8]) was “TLR4 agonists”.
In the case of CCOC(=O)C1(c2ccccc2)CCN(C)CC1 [pethadine/meperidine], the TLR4 agonism (TLR4 [7]; [8]) is reported as “TLR4 agonists”.
